In patent US7919468B2, “Compounds useful as modulators of the proteasome activity” (Centre National de la Recherche Scientifique (C.N.R.S.), priority 2005, dated 2011):
Peptide text beside a SMILES is read from it. * marks the point of attachment. Boc = CC(C)(C)OC(=O)*; NHBn = c1ccc(CN*)cc1; NHPh = c1ccc(N*)cc1; Bn = c1ccc(C*)cc1

Legend:
[1] = system: T1, rabbit 20S proteasome, chymotrypsin-like (CT-L) activity; assay: Rabbit 20S proteasome fluorescent assay, chymotrypsin-like activity (Suc-LLVY-amc); assay type: biochemical; conditions: [Compound]=100 μM, pH 7.5, 30° C.
T1 construct: other: [Compound]=100 μM, pH 7.5, 30° C
Method: (§1) 20S proteasome from rabbit reticulocyte was from commercial source (Alexis Biochemicals)
(§2) Semi-automatic fluorescent assays using Suc-LLVY-amc (SEQ ID NO: 2) for chymotrypsin-like activity, Z-LLE-SNA for post-acid activity and Boc-LLR-amc for trypsin-like activity of proteasome were performed at pH 7.5 and 30° C. using BMG Fluostar microplate reader (Suc=succinyl; amc=7-amino-4-methylcoumarin; Z=benzyloxycarbonyl; NA=2-naphtylamine; Boc=tert-butoxycarbonyl). The buffers were: 20 mM Tris, 1 mM DTT, 10% glycerol, 3% (v/v) DMSO (ChT-L and PA activities); 20 mM Tris, 1 mM DTT, 10% glycerol, 3% (v/v) DMSO. Studied compounds were dissolved in DMSO prior dissolution in the buffer. Proteasome was incubated for 15 min at 30° C. in the presence of the studied compound (0.1-100 μM). A control assay in the absence of tested compounds contained DMSO at the same concentration (3%, v/v). The fluorogenic proteasome substrate was then added and the hydrolysis of the appropriate fluorescent substrate was monitored for 1 h (λexc=360, λem=465 nm for amc substrates and λexc=340, λem=405 nm for the βNA substrate). Initial rates determined in control experiments were considered to be 100% of the peptidasic activity; initial rates that were above 100% in the presence of a test compound were considered to be activations, while initial rates below 100% were considered to be inhibitions. For weak inhibitors, the percentage of inhibition at a reference concentration (100 μM) is reported. The results, expressed in % inhibition (or activation factor), were obtained by calculating the average of at least two independent experiments, the variability was less than 10%. The inhibitory activity of more efficient compounds are expressed as IC50 calculated by fitting the experimental data to the equation 1: % Inhibition=100 [I]0/(IC50+[I]0)=100 (v0−vi/v0), or equation 2: % Inhibition=100 [I]0^nH/(IC50^nH+[I]0^nH), nH is the Hill number. v0 and vi are the initial rates in the absence and in the presence of inhibitor. A Dixon plot has been used to determine the inhibition constant Ki for competitive inhibition by compound A215. The reversible character of inhibition or activation was determined by measuring the activity of treated enzyme after the inhibitor molecule has been withdrawn from the reaction medium.
(§3) Inhibition of Rabbit 20 S Proteasome (pH=7.5, 30° C.)
(§4) Activation of Rabbit 20 S Proteasome (pH=7.5, 30° C., [Compound]=100 μM)

[2] = system: rabbit 20S proteasome, trypsin-like (T-L) activity; assay: Rabbit 20S proteasome fluorescent assay, trypsin-like activity (Boc-LLR-amc); assay type: biochemical; conditions: [Compound]=100 μM, pH 7.5, 30° C.
Method: as §1, §2, §3, §4

[3] = patients enrolled in clinical trials (thrombocytopaenia, fatigue, peripheral neuropathy, neutropenia); cited from earlier work
[4] = biological target: T2, rabbit 20S proteasome, chymotrypsin-like (CT-L) activity (Oryctolagus cuniculus, UniProt G1T4Q9); assay: Rabbit 20S proteasome fluorescent assay, chymotrypsin-like activity (Suc-LLVY-amc); assay type: biochemical; conditions: pH 7.5, 30° C.
T2 construct: other: 100 μM compound, pH 7.5, 30° C; other: pH 7.5, 30° C; CT-L Ki
T2 sequence (G1T4Q9 1-263): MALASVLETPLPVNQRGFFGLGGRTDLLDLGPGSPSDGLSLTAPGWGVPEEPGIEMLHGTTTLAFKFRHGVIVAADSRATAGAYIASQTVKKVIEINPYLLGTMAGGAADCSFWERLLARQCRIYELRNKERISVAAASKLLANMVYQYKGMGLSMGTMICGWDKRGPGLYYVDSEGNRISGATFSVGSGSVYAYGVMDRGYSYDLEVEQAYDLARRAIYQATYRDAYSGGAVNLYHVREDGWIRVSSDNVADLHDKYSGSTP
Method: as §1, §2, §3, §4

[5] = biological target: T3, rabbit 20S proteasome, trypsin-like (T-L) activity (Oryctolagus cuniculus, UniProt G1SWK8); assay: Rabbit 20S proteasome fluorescent assay, trypsin-like activity (Boc-LLR-amc); assay type: biochemical; conditions: pH 7.5, 30° C.; for inhibition at 100 µM: 100 μM compound
T3 construct: other: 100 μM compound, pH 7.5, 30° C; other: pH 7.5, 30° C
T3 sequence (G1SWK8 1-271): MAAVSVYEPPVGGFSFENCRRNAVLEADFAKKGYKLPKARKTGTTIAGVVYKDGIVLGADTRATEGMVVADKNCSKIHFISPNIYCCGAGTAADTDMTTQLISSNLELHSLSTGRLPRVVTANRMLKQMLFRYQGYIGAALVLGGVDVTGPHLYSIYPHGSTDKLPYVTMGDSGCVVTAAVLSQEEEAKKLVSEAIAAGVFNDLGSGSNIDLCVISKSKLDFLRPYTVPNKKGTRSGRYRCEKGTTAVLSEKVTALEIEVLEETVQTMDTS
Method: as §1, §2, §3, §4

[6] = biological target: T4, rabbit 20S proteasome, post-acid (PA) activity (Oryctolagus cuniculus, UniProt A0A5F9DQW2); assay: Rabbit 20S proteasome fluorescent assay, post-acid activity (Z-LLE-βNA); assay type: biochemical; conditions: pH 7.5, 30° C.; for PA % inhibition (at 100 μM): 100 μM compound
T4 construct: other: 100 μM compound, pH 7.5, 30° C; other: pH 7.5, 30° C
Method: as §1, §2, §3, §4

[7] = system: rabbit 20S proteasome, post-acid (PA) activity; assay: as above; assay type: biochemical; conditions: [Compound]=100 μM, pH 7.5, 30° C.
Method: as §1, §2, §3, §4

T4 sequence (A0A5F9DQW2 1-212): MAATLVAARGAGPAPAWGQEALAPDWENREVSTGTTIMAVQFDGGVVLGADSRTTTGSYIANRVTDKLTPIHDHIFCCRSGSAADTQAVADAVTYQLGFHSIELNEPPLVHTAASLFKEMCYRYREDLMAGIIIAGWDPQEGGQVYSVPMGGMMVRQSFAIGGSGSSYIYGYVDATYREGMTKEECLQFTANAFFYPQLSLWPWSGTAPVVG

SMILES | CT-L Activation factor [1] | T-L Activation factor [2] | other results
CC(C)C[C@H](NC(=O)[C@H](Cc1ccc(OCc2ccccc2)cc1)NC(=O)OC(C)(C)C)C(=O)N[C@@H](Cc1c[nH]c2ccccc12)C(=O)NCc1ccccc1 [A414P, N-Boc-Tyr(Bn)-Leu-Trp-NHCH2Ph] (Boc-Tyr(Bn)-Leu-Trp-NHBn) | 1.3 | 1.9 | –
CC(C)(C)OC(=O)NCCCCNC(=O)[C@H](Cc1c[nH]c2ccccc12)NC(=O)[C@H](CCCCNC(=O)OC(C)(C)C)NC(=O)[C@H](Cc1ccc(OCc2ccccc2)cc1)NC(=O)OC(C)(C)C [SP308P, N-Boc-Tyr(Bn)-Lys(Boc)-Trp-NH(CH2)4NHBoc] | 1.6 | 1.9 | –
CC(C)(C)OC(=O)NCCCC[C@H](NC(=O)[C@H](Cc1ccc(OCc2ccccc2)cc1)NC(=O)OC(C)(C)C)C(=O)N[C@@H](Cc1c[nH]c2ccccc12)C(=O)NCc1ccccc1 [SP307P, N-Boc-Tyr(Bn)-Lys(Boc)-Trp-NHCH2Ph] (Boc-Tyr(Bn)-Lys(Boc)-Trp-NHBn) | 1.3 | 1.8 | –
CC(C)(C)OC(=O)N[C@@H](Cc1ccc(OCc2ccccc2)cc1)C(=O)N[C@@H](CC(N)=O)C(=O)N[C@@H](Cc1c[nH]c2ccccc12)C(=O)Nc1ccccc1 [SP314C2, N-Boc-Tyr(Bn)-Asn-Trp-NHPh] (Boc-Tyr(Bn)-Asn-Trp-NHPh) | 1.5 | 2.5 | –
CC(C)C[C@H](NC(=O)[C@H](Cc1ccccc1)NC(=O)c1cnccn1)B(O)O [Bortezomib, bortezomib] | – | – | patients with adverse events [3]: 30%
CC(C)(C)OC(=O)N[C@@H](Cc1ccc(O)cc1)C(=O)N[C@@H](CCCNC(=N)N)C(=O)N[C@@H](Cc1c[nH]c2ccccc12)C(=O)Nc1ccc(O)cc1 [SP324, N-Boc-Tyr-Arg-Trp-NH(4-OH)Ph] | – | – | IC50 [4]: 9 µM; IC50 [5]: 21 µM; IC50 [6]: 3 µM
CC(C)(C)OC(=O)NCCCC[C@H](NC(=O)[C@H](Cc1ccc(OCc2ccccc2)cc1)NC(=O)OC(C)(C)C)C(=O)N[C@@H](Cc1c[nH]c2ccccc12)C(=O)Nc1ccc(O)cc1 [SP319P, N-Boc-Tyr(Bn)-Lys(Boc)-Trp-NH(4-OH)Ph] | – | – | inhibition at 100 µM ([4]; 100 μM compound): 36%; inhibition at 100 µM [5]: 14%
CC(C)(C)OC(=O)NCCCCNC(=O)[C@H](Cc1c[nH]c2ccccc12)NC(=O)[C@H](CC(N)=O)NC(=O)[C@H](Cc1ccc(OCc2ccccc2)cc1)NC(=O)OC(C)(C)C [SP323C2, N-Boc-Tyr(Bn)-Asn-Trp-NH(CH2)4NHBoc] | 1.6 | 2.2 | PA Activation factor [7]: 1.2
CNC(=O)[C@H](Cc1c[nH]c2c(-c3cc(C[C@H](NC(=O)OC(C)(C)C)C(=O)N[C@@H](CC(C)C)C(=O)OC)ccc3OCc3ccccc3)cccc12)NC(=O)OCc1ccccc1 [SP226F1] | – | – | inhibition at 100 µM [5]: 23%
CC(C)C[C@H](NC(=O)[C@H](Cc1ccc(OCc2ccccc2)cc1)NC(=O)OC(C)(C)C)C(=O)N[C@@H](Cc1c[nH]c2ccccc12)C(=O)Nc1ccccc1 [A424P, N-Boc-Tyr(Bn)-Leu-Trp-NHPh] (Boc-Tyr(Bn)-Leu-Trp-NHPh) | 1.2 | 1.9 | –
C[C@H](NC(=O)[C@H](Cc1ccc(OCc2ccccc2)c(I)c1)NC(=O)OC(C)(C)C)C(=O)N[C@@H](Cc1c[nH]c2c(Br)cccc12)C(=O)O [A215, N-Boc-3-iodo-Tyr(Bn)-Ala-7-bromo-Trp-OH] | – | – | Ki ([4]; Dixon plot, competitive inhibition): 2000 nM; IC50 [4]: 6.8 µM; IC50 [5]: 14.4 µM; IC50 [6]: 11.3 µM
CC(C)(C)OC(=O)N[C@@H](Cc1ccc(OCc2ccccc2)cc1)C(=O)N[C@@H](CCCN(C(=N)NC(=O)OCc1ccccc1)C(=O)OCc1ccccc1)C(=O)N[C@@H](Cc1c[nH]c2ccccc12)C(=O)Nc1ccccc1 [SP310C, N-Boc-Tyr(Bn)-Arg(Z)-2-Trp-NHPh] | 1.7 | 1.6 | –
CC(C)(C)OC(=O)N[C@@H](Cc1ccc(OCc2ccccc2)cc1)C(=O)N[C@@H](CCCN(C(=N)NC(=O)OCc1ccccc1)C(=O)OCc1ccccc1)C(=O)N[C@@H](Cc1c[nH]c2ccccc12)C(=O)NCc1ccccc1 [SP315C2, N-Boc-Tyr(Bn)-Arg(Z)-2-Trp-NHCH2Ph] | 1.2 | 1.9 | –
CC(C)(C)OC(=O)N[C@@H](Cc1ccc(O)cc1)C(=O)N[C@@H](CCCNC(=N)N)C(=O)N[C@@H](Cc1c[nH]c2ccccc12)C(=O)NCc1ccccc1 [SP325, N-Boc-Tyr-Arg-Trp-NHCH2Ph] (Boc-Tyr-Arg-Trp-NHBn) | – | – | IC50 [4]: 5.4 µM; IC50 [5]: 19 µM; IC50 [6]: 2.5 µM
CNC(=O)[C@H](Cc1c[nH]c2c(-c3cc(C[C@H](NC(=O)OC(C)(C)C)C(=O)N[C@@H](C)C(=O)OC)ccc3OCc3ccccc3)cccc12)NC(=O)OCc1ccccc1 [SP225F2] | – | – | inhibition at 100 µM [5]: 49%; PA % inhibition (at 100 μM) [6]: 25%
C[C@H](NC(=O)[C@H](Cc1ccc(OCc2ccccc2)cc1)NC(=O)OC(C)(C)C)C(=O)N[C@@H](Cc1c[nH]c2ccccc12)C(=O)Nc1ccccc1 [SP303r2, N-Boc-Tyr(Bn)-Ala-Trp-NHPh] (Boc-Tyr(Bn)-Ala-Trp-NHPh) | 1.4 | 1.6 | –
CC(C)(C)OC(=O)NCCCC[C@H](NC(=O)[C@H](Cc1ccc(OCc2ccccc2)cc1)NC(=O)OC(C)(C)C)C(=O)N[C@@H](Cc1c[nH]c2ccccc12)C(=O)Nc1ccccc1 [SP306P, N-Boc-Tyr(Bn)-Lys(Boc)-Trp-NHPh] (Boc-Tyr(Bn)-Lys(Boc)-Trp-NHPh) | 1.2 | 1.6 | –
CC(C)(C)OC(=O)N[C@@H](Cc1ccc(OCc2ccccc2)cc1)C(=O)NCC(=O)N[C@@H](Cc1c[nH]c2ccccc12)C(=O)NCc1ccccc1 [PSV11R, N-Boc-Tyr(Bn)-Gly-Trp-NHCH2Ph] (Boc-Tyr(Bn)-Gly-Trp-NHBn) | 1.2 | 1.7 | PA % inhibition (at 100 μM) [6]: 59%
C[C@H](NC(=O)[C@H](Cc1ccc(OCc2ccccc2)cc1)NC(=O)OC(C)(C)C)C(=O)N[C@@H](Cc1c[nH]c2ccccc12)C(=O)NCCCCNC(=O)OC(C)(C)C [SP305R, N-Boc-Tyr(Bn)-Ala-Trp-NH(CH2)4NHBoc] | 1.5 | 3.2 | PA Activation factor [7]: 1.2
CC(C)(C)OC(=O)NCCCCNC(=O)[C@H](Cc1c[nH]c2ccccc12)NC(=O)[C@H](CCCN(C(=N)NC(=O)OCc1ccccc1)C(=O)OCc1ccccc1)NC(=O)[C@H](Cc1ccc(OCc2ccccc2)cc1)NC(=O)OC(C)(C)C [SP311C, N-Boc-Tyr(Bn)-Arg(Z)-2-Trp-NH(CH2)4NHBoc] | 1.3 | 1.9 | PA Activation factor [7]: 1.2
